Results from patent publication US4470977A, “Antiemetic and antipsychotic agents” (Adria Laboratories, Inc., priority 1982, dated 1984).

What was measured:
dopaminergic receptors = assay: Antagonism to Apomorphine Induced Climbing Behavior; type: in vivo, mouse; conditions: for Antagonism (20 min. After): 20 minutes after 1 mg/kg s.c. apomorphine, doses 6.25 to 100 mg/kg; for Antagonism (20 min. After) / ED50: mouse; for apomorphine induced climbing behavior (in words): indicator of antipsychotic activity; for ED50: antagonism to apomorphine (1 mg/kg s.c.) induced climbing behavior, p.o.
Text: The effect of each of the compounds in Table 1 on apomorphine induced climbing behavior related to stimulation of dopaminergic receptors was studied under the experimental conditions described by Costetin et al, 1975, Rapid and Dissociated Changes in Sensitivities of Different Dopamine Receptors in Mouse Brain, Nature, 257, 405.

mammary gland = assay: Effect of Sulpiride and Sulpiride Analogs on Mammary Gland Development in Female Sprague Dawley Rats; type: in vivo; conditions: for Number of Animals with Mammary Hypertrophy: n = 6 female Sprague Dawley rats, 0.02% drug in chow, 14 days
Text: The animals were individually caged during the 14-day study, with rat chow and tap water permitted ad libitum. The rat chow fed to the control group contained no drug, while that fed to the other groups contained 0.02% drug. Food cups were weighed and refilled on day 7 during the study. On day 14 of the study, the animals were sacrificed by asphyxiation in a CO2 atmosphere and then were weighed. The abdominal skin was cut along the midline from the pelvis to the sternum and separated from underlying tissues by blunt dissection. Each animal was then examined grossly for mammary gland enlargement.

[1] = system: medullary chemoreceptor trigger zone (CTZ); assay: Antiemetic Screen: Antagonism to Apomorphine Induced Emesis In the Dog; type: in vivo, beagle dogs; parameters: key to Antagonism to Apomorphine Induced Emesis: If both animals receiving a particular treatment are protected (i.e., no emetic response within one hour after apomorphine), the test compound is defined as active (+); conditions: for Antagonism to Apomorphine Induced Emesis: 10 mg/kg sc, beagle dogs, 0.1 mg/kg sc apomorphine HCl one hour later
Protocol: Each compound is administered subcutaneously (sc) to two beagle dogs at 10.0 mg/kg. One hour following administration of the test compound, each animal receives 0.1 mg/kg, sc, of apomorphine HCl. Apomorphine consistently evokes an immediate emetic response through direct dopaminergic interaction at the medullary chemoreceptor trigger zone (CTZ). Antiemetic compounds which act at the CTZ and/or the midbrain vomiting center will block this effect of apomorphine. If both animals receiving a particular treatment are protected (i.e., no emetic response within one hour after apomorphine), the test compound is defined as active (+). In instances where protection is observed in only 1 of the 2 animals, the experiment is repeated in two additional animals and the results of the two tests are combined. Compounds which protect 3 out of 4 animals are then defined as active. The results are shown in Table 4 below and indicate that each of the invention compounds is active against emesis.

dopamine receptors = conditions: cited from earlier work

| SMILES | Antagonism (20 min. After) (dopaminergic receptors) | apomorphine induced climbing behavior (in words) (dopaminergic receptors) | mammary hypertrophy (in words) (mammary gland) | Number of Animals with Mammary Hypertrophy (mammary gland) | antiemetic effect (in words) [1] | Antagonism to Apomorphine Induced Emesis [1] | ED50 (dopaminergic receptors) | undesirable side effect (dopamine receptors) |
| --- | --- | --- | --- | --- | --- | --- | --- | --- |
| CCN1CCCC1CNC(=O)c1ccccc1N (stereo not drawn) [Compound 9, 2-amino-N-(1-ethyl-2-pyrrolidinylmethyl)-benzamide] | Yes | suppress apomorphine induced climbing behavior | without mammary hypertrophy | 0 animals | possess an antiemetic effect | + | – | – |
| CCN1CCCC1CNC(=O)c1cc(C)ccc1OC (stereo not drawn) [Compound 6, N-(1-ethyl-2-pyrrolidinylmethyl)-2-methoxy-5-methylbenzamide] | Yes | – | – | 0 animals | – | + | – | – |
| CCN1CCCC1CNC(=O)c1cc(Cl)ccc1Cl (stereo not drawn) [Compound 12, 2,5-dichloro-N-(1-ethyl-2-pyrrolidinylmethyl)-benzamide] | Yes | suppress apomorphine induced climbing behavior | without mammary hypertrophy | 0 animals | possess an antiemetic effect | + | – | – |
| CCN1CCCC1CNC(=O)c1cccc(C)c1[N+](=O)[O-] (stereo not drawn) [Compound 8, N-(1-ethyl-2-pyrrolidinylmethyl)-3-methyl-2-nitrobenzamide] | No | – | – | 0 animals | – | + | – | – |
| CCN1CCCC1CNC(=O)c1cccc(Cl)c1C (stereo not drawn) [Compound 13, 3-chloro-N-(1-ethyl-2-pyrrolidinylmethyl)-2-methylbenzamide] | No | – | – | 0 animals | – | + | – | – |
| CCN1CCCC1CNC(=O)c1cc(Cl)ccc1OC (stereo not drawn) [Compound 3, 5-chloro-N-(1-ethyl-2-pyrrolidinylmethyl)-2-methoxybenzamide] | Yes | suppress apomorphine induced climbing behavior | without mammary hypertrophy | 0 animals | possess an antiemetic effect | + | – | – |
| CCN1CCCC1CNC(=O)c1ccc(Cl)cc1OC (stereo not drawn) [Compound 2, 4-chloro-N-(1-ethyl-2-pyrrolidinylmethyl)-2-methoxybenzamide] | Yes | suppress apomorphine induced climbing behavior | without mammary hypertrophy | 0 animals | possess an antiemetic effect | + | – | – |
| CCN1CCCC1CNC(=O)c1cc(S(N)(=O)=O)ccc1OC (stereo not drawn) [Sulpiride, 2-methoxy-N-(1-ethyl-2-pyrrolidinylmethyl)-5-sulfamoyl benzamide, reference compound] | Yes | – | consistently produce mammary hypertrophy | 6 animals | – | – | 24.3 (19.3-32.4) mg/kg p.o. | mammary hypertrophy |
| CCN1CCCC1CNC(=O)c1cccc([N+](=O)[O-])c1OC (stereo not drawn) [Compound 7, N-(1-ethyl-2-pyrrolidinylmethyl)-2-methoxy-3-nitrobenzamide] | Yes | – | – | 0 animals | – | + | – | – |
| CCN1CCCC1CNC(=O)c1cccc(C)c1N (stereo not drawn) [Compound 10, 2-amino-N-(1-ethyl-2-pyrrolidinylmethyl)-3-methylbenzamide] | No | – | – | 0 animals | – | + | – | – |
| CCN1CCCC1CNC(=O)c1ccc(C)cc1OC (stereo not drawn) [Compound 5, N-(1-ethyl-2-pyrrolidinylmethyl)-2-methoxy-4-methylbenzamide] | Yes | – | – | 0 animals | – | + | – | – |
| CCN1CCCC1CNC(=O)c1cccc(N)c1C (stereo not drawn) [Compound 11, 3-amino-N-(1-ethyl-2-pyrrolidinylmethyl)-2-methylbenzamide] | No | – | – | 0 animals | – | + | – | – |
| CCN1CCCC1CNC(=O)c1cccc(Cl)c1OC (stereo not drawn) [Compound 1, 3-chloro-N-(1-ethyl-2-pyrrolidinylmethyl)-2-methoxybenzamide] | Yes | suppress apomorphine induced climbing behavior | without mammary hypertrophy | 0 animals | possess an antiemetic effect | + | 26.8 (20.7-38.5) mg/kg p.o. | – |
| CCN1CCCC1CNC(=O)c1ccccc1OC (stereo not drawn) [Compound 4, N-(1-ethyl-2-pyrrolidinylmethy)-2-methoxybenzamide] | Yes | suppress apomorphine induced climbing behavior | without mammary hypertrophy | 0 animals | possess an antiemetic effect | + | – | – |
